Results reported in patent publication EP4273147A1, “SUBSTITUTED SPIROLACTAMS, SALTS THEREOF AND THEIR USE AS HERBICIDALLY ACTIVE SUBSTANCES” (Bayer Aktiengesellschaft, priority 2022, dated 2023).

Legend:
ALOMY [1] = test: Herbicidal pre-emergence action, section C (Table C2); type: in vivo, Alopecurus myosuroides; conditions: application rate 320 g/ha; visual grading after ca. 3 weeks
AMARE = test: Herbicidal pre-emergence action, section C (Table C3); type: in vivo, Amaranthus retroflexus; conditions: application rate 320 g/ha; visual grading after ca. 3 weeks
Excerpt: (§4) Seeds of mono- and dicotyledonous weed plants and crop plants were sown, in plastic or organic planting pots, in sandy loam and covered with soil. The compounds according to the invention, formulated in the form of wettable powders (WP) or as emulsifiable concentrates (EC), were applied to the surface of the covering soil as aqueous suspension or emulsion, with the addition of 0.5% of an additive, at an application rate of 600 1 of water/ha (converted). Following treatment, the pots were placed in a greenhouse and kept under optimum growth conditions for the test plants.

DIGSA = test: Herbicidal pre-emergence action, section C (Table C5); type: in vivo, Digitaria sanguinalis; conditions: application rate 80 g/ha; visual grading after ca. 3 weeks
ECHCG [2] = test: Herbicidal pre-emergence action, section C (Table C6); type: in vivo, Echinochloa crus-galli; conditions: visual grading after ca. 3 weeks
LOLRI [3] = test: Herbicidal pre-emergence action, section C (Table C7); type: in vivo, Lolium rigidum; conditions: application rate 320 g/ha; visual grading after ca. 3 weeks
MATIN [4] = test: Herbicidal pre-emergence action, section C (Table C8); type: in vivo, Matricaria inodora; conditions: application rate 320 g/ha; visual grading after ca. 3 weeks
POLCO = test: Herbicidal pre-emergence action, section C (Table C9); type: in vivo, Polygonum convolvulus; conditions: application rate 80 g/ha; visual grading after ca. 3 weeks
SETVI [5] = test: Herbicidal pre-emergence action, section C (Table C10); type: in vivo, Setaria viridis; conditions: application rate 80 g/ha; visual grading after ca. 3 weeks
VERPE [6] = test: Herbicidal pre-emergence action, section C (Table C11); type: in vivo, Veronica persica; conditions: application rate 320 g/ha; visual grading after ca. 3 weeks
Excerpt: as §4

VIOTR [7] = test: Herbicidal pre-emergence action, section C (Table C12); type: in vivo, Viola tricolor; conditions: visual grading after ca. 3 weeks
ABUTH [8] = test: Herbicidal post-emergence action, section E (Table E1); type: in vivo, Abutilon theophrasti; conditions: application rate 320 g/ha; assessed visually after ca. 3 weeks
Excerpt: (§1) 2 to 3 weeks after sowing, the test plants were sprayed in the single-leaf stage.

ALOMY [9] = test: Herbicidal post-emergence action, section E (Table E2); type: in vivo, Alopecurus myosuroides; conditions: application rate 320 g/ha; assessed visually after ca. 3 weeks
Excerpt: as §1

ECHCG [10] = test: Herbicidal post-emergence action, section E (Table E5); type: in vivo, Echinochloa crus-galli; conditions: application rate 320 g/ha; assessed visually after ca. 3 weeks
Excerpt: as §1

VERPE [11] = test: Herbicidal post-emergence action, section E (Table E9); type: in vivo, Veronica persica; conditions: application rate 320 g/ha; assessed visually after ca. 3 weeks
Excerpt: as §1

VIOTR [12] = test: Herbicidal post-emergence action, section E (Table E10); type: in vivo, Viola tricolor; conditions: application rate 320 g/ha; assessed visually after ca. 3 weeks
Excerpt: as §1

ZEAMX [13] = test: Post-emergence effects on crop plants (Table F1); type: in vivo, Zea mays; conditions: application rate 320 g/ha, crop plant ZEAMX
Excerpt: as §1

TRZAS = test: Post-emergence effects on crop plants (Table F2); type: in vivo, Triticum aestivum; conditions: crop plant TRZAS
Excerpt: as §1

ORYZA [14] = test: Post-emergence effects on crop plants (Table F3); type: in vivo, Oryza sativa; conditions: application rate 80 g/ha, crop plant ORYZA
Excerpt: as §1

GLXMA [15] = test: Post-emergence effects on crop plants (Table F4); type: in vivo, Glycine max; conditions: application rate 80 g/ha, crop plant GLXMA
Excerpt: as §1

BRSNW [16] = test: Post-emergence effects on crop plants (Table F5); type: in vivo, Brassica napus; conditions: application rate 80 g/ha, crop plant BRSNW
Excerpt: as §1

ABUTH [17] = test: Herbicidal pre-emergence action (Table A1); type: in vivo, Abutilon theophrasti; conditions: application rate 1280 g/ha; visual grading after ca. 3 weeks vs untreated controls (100% = plants have died off, 0% = as control plants)
Outline: (§2)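 Weed seeds are sown into sandy loam in pots and covered with soil, with two species per pot, one monocot and one dicot.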

ECHCG [18] = test: Herbicidal pre-emergence action (Table A2); type: in vivo, Echinochloa crus-galli; conditions: application rate 320 g/ha; visual grading after ca. 3 weeks
Outline: as §2

LOLRI [19] = test: Herbicidal pre-emergence action (Table A3); type: in vivo, Lolium rigidum; conditions: application rate 320 g/ha; visual grading after ca. 3 weeks
Outline: as §2

MATIN [20] = test: Herbicidal pre-emergence action (Table A4); type: in vivo, Matricaria inodora; conditions: application rate 320 g/ha; visual grading after ca. 3 weeks
Outline: as §2

SETVI [21] = test: Herbicidal pre-emergence action (Table A5); type: in vivo, Setaria viridis; conditions: application rate 320 g/ha; visual grading after ca. 3 weeks
Outline: as §2

STEME [22] = test: Herbicidal pre-emergence action (Table A6); type: in vivo, Stellaria media; conditions: application rate 320 g/ha; visual grading after ca. 3 weeks
Outline: as §2

POAAN [23] = test: Herbicidal pre-emergence action (Table A7); type: in vivo, Poa annua; conditions: application rate 320 g/ha; visual grading after ca. 3 weeks
Outline: as §2

ALOMY [24] = test: Herbicidal pre-emergence action (Table A9); type: in vivo, Alopecurus myosuroides; conditions: application rate 320 g/ha; visual grading after ca. 3 weeks
Outline: as §2

KCHSC = test: Herbicidal pre-emergence action (Table A10); type: in vivo, Kochia scoparia; conditions: application rate 1280 g/ha; visual grading after ca. 3 weeks
Outline: as §2

VERPE [25] = test: Herbicidal pre-emergence action (Table A11); type: in vivo, Veronica persica; conditions: application rate 320 g/ha; visual grading after ca. 3 weeks
Outline: as §2

ABUTH [26] = test: Herbicidal post-emergence action (Table B1); type: in vivo, Abutilon theophrasti; conditions: application rate 1280 g/ha; treated at one-leaf stage; rated visually after about 3 weeks vs untreated controls (100% = plants have died, 0% = like control plants)
Outline: (§3)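 Percent herbicidal activity scored visually versus untreated controls, with 100% meaning dead plants. Scoring took place ~3 weeks after post-emergence treatment of one-leaf-stage weeds grown in sandy loam pots in a greenhouse.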

ALOMY [27] = test: Herbicidal post-emergence action (Table B2); type: in vivo, Alopecurus myosuroides; conditions: application rate 1280 g/ha; rated visually after about 3 weeks
Outline: as §3

ECHCG [28] = test: Herbicidal post-emergence action (Table B3); type: in vivo, Echinochloa crus-galli; conditions: application rate 320 g/ha; rated visually after about 3 weeks
Outline: as §3

MATIN [29] = test: Herbicidal post-emergence action (Table B6); type: in vivo, Matricaria inodora; conditions: application rate 320 g/ha; rated visually after about 3 weeks
Outline: as §3

POAAN [30] = test: Herbicidal post-emergence action (Table B7); type: in vivo, Poa annua; conditions: application rate 320 g/ha
Outline: as §3

SETVI [31] = test: Herbicidal post-emergence action (Table B8); type: in vivo, Setaria viridis; conditions: application rate 1280 g/ha
Outline: as §3

STEME [32] = test: Herbicidal post-emergence action (Table B9); type: in vivo, Stellaria media; conditions: application rate 1280 g/ha
Outline: as §3

VERPE [33] = test: Herbicidal post-emergence action (Table B10); type: in vivo, Veronica persica; conditions: application rate 320 g/ha
Outline: as §3

ZEAMX [34] = test: Pre-emergence effects on crop plants (Table D1); type: in vivo, Zea mays; conditions: crop plant; application rate 80 g/ha; visual grading after ca. 3 weeks
Excerpt: (§5) Seeds of mono- and dicotyledonous weed plants and crop plants were sown, in plastic or organic planting pots, in sandy loam and covered with soil. The compounds according to the invention, formulated in the form of wettable powders (WP) or as emulsifiable concentrates (EC), were applied to the surface of the covering soil as aqueous suspension or emulsion, with the addition of 0.5% of an additive, at an application rate of 600 1 of water/ha (converted).
(§6) Following treatment, the pots were placed in a greenhouse and kept under optimum growth conditions for the test plants.

GLXMA [35] = test: Pre-emergence effects on crop plants (Table D4); type: in vivo, Glycine max; conditions: crop plant; application rate 80 g/ha; visual grading after ca. 3 weeks
BRSNW [36] = test: Pre-emergence effects on crop plants (Table D5); type: in vivo, Brassica napus; conditions: crop plant; application rate 80 g/ha; visual grading after ca. 3 weeks
Excerpt: as §5, §6

LOLRI [37] = test: Herbicidal post-emergence action, section E (Table E6); type: in vivo, Lolium rigidum; conditions: application rate 320 g/ha; assessed visually after ca. 3 weeks
Excerpt: as §1

SETVI [38] = test: Herbicidal post-emergence action, section E (Table E8); type: in vivo, Setaria viridis; conditions: application rate 320 g/ha; assessed visually after ca. 3 weeks
Excerpt: as §1

ORYZA [39] = test: Pre-emergence effects on crop plants (Table D3); conditions: crop plant; application rate 80 g/ha; visual grading after ca. 3 weeks

With `O=C1N(Cc2c(F)cccc2F)CCCC12CCCN(Cc1c(F)cccc1F)C2=O` (racemic) [I-006, 2,8-bis[(2,6-difluorophenyl)methyl]-2,8-diazaspiro[5.5]undecane-1,7-dione] the “pre-emergence activity against ALOMY” value (ALOMY [1]) was 100%, the “pre-emergence activity against AMARE” value (AMARE) was 90% and the “pre-emergence activity against DIGSA” value (DIGSA) was 100%. The “pre-emergence activity against ECHCG” value (ECHCG [2]; application rate 320 g/ha) was 100%, the “pre-emergence activity against LOLRI” value (LOLRI [3]) was 100% and the “pre-emergence activity against MATIN” value (MATIN [4]) was 80%. For the same compound, the “pre-emergence activity against POLCO” value (POLCO) was 100%, the “pre-emergence activity against SETVI” value (SETVI [5]) was 100% and the “pre-emergence activity against VERPE” value (VERPE [6]) was 90%. The “pre-emergence activity against VIOTR” value (VIOTR [7]; application rate 38 g/ha (so in the source)) was 90%, the “post-emergence activity against ABUTH” value (ABUTH [8]) was 80% and the “post-emergence activity against ALOMY” value (ALOMY [9]) was 90%. The “post-emergence activity against ECHCG” value (ECHCG [10]) was 80%, the “post-emergence activity against VERPE” value (VERPE [11]) was 80% and the “post-emergence activity against VIOTR” value (VIOTR [12]) was 80%. The “post-emergence activity against ZEAMX” value (ZEAMX [13]) was 20%, the “post-emergence activity against TRZAS” value (TRZAS; application rate 320 g/ha) was 10% and the “post-emergence activity against ORYZA” value (ORYZA [14]) was 10%. The “post-emergence activity against GLXMA” value (GLXMA [15]) was 20% and the “post-emergence activity against BRSNW” value (BRSNW [16]) was 20%.

For `O=C1N(Cc2ccccc2F)CCCC12CCCN(Cc1cccc(F)c1F)C2=O` (racemic) [I-003], the “pre-emergence activity against ABUTH” value (ABUTH [17]) was 90%, the “pre-emergence activity against ECHCG” value (ECHCG [18]) was 100% and the “pre-emergence activity against LOLRI” value (LOLRI [19]) was 100%. The “pre-emergence activity against MATIN” value (MATIN [20]) was 90%, the “pre-emergence activity against SETVI” value (SETVI [21]) was 100% and the “pre-emergence activity against STEME” value (STEME [22]) was 90%. The “pre-emergence activity against POAAN” value (POAAN [23]) was 100%, the “pre-emergence activity against ALOMY” value (ALOMY [24]) was 90% and the “pre-emergence activity against KCHSC” value (KCHSC) was 90%. The “pre-emergence activity against VERPE” value (VERPE [25]) was 90%, the “post-emergence activity against ABUTH” value (ABUTH [26]) was 90% and the “post-emergence activity against ALOMY” value (ALOMY [27]) was 90%. The “post-emergence activity against ECHCG” value (ECHCG [28]) was 90%, the “post-emergence activity against MATIN” value (MATIN [29]) was 90% and the “post-emergence activity against POAAN” value (POAAN [30]) was 100%. For the same compound, the “post-emergence activity against SETVI” value (SETVI [31]) was 90%, the “post-emergence activity against STEME” value (STEME [32]) was 100% and the “post-emergence activity against VERPE” value (VERPE [33]) was 90%. The “pre-emergence activity against ALOMY” value (ALOMY [1]) was 90%, the “pre-emergence activity against ECHCG” value (ECHCG [2]; application rate 80 g/ha) was 100% and the “pre-emergence activity against LOLRI” value (LOLRI [3]) was 90%. The “pre-emergence activity against MATIN” value (MATIN [4]) was 90%, the “pre-emergence activity against SETVI” value (SETVI [5]) was 100% and the “pre-emergence activity against VIOTR” value (VIOTR [7]; application rate 320 g/ha) was 90%. For the same compound, the “pre-emergence activity against ZEAMX” value (ZEAMX [34]) was 10%, the “pre-emergence activity against GLXMA” value (GLXMA [35]) was 10% and the “pre-emergence activity against BRSNW” value (BRSNW [36]) was 10%. For the same compound, the “post-emergence activity against ALOMY” value (ALOMY [9]) was 90%, the “post-emergence activity against ECHCG” value (ECHCG [10]) was 80% and the “post-emergence activity against LOLRI” value (LOLRI [37]) was 80%. For the same compound, the “post-emergence activity against SETVI” value (SETVI [38]) was 80%, the “post-emergence activity against VERPE” value (VERPE [11]) was 80% and the “post-emergence activity against ZEAMX” value (ZEAMX [13]) was 20%. The “post-emergence activity against TRZAS” value (TRZAS; application rate 80 g/ha) was 0%, the “post-emergence activity against ORYZA” value (ORYZA [14]) was 20% and the “post-emergence activity against GLXMA” value (GLXMA [15]) was 20%. The “post-emergence activity against BRSNW” value (BRSNW [16]) was 20% and the “pre-emergence activity against ORYZA” value (ORYZA [39]) was 20%.
